In patent publication US20240025919A1, “AZA-TETRACYCLIC OXAZEPINE COMPOUNDS AND USES THEREOF” (Genentech, Inc., priority 2022, published 2024) one finds IC50 data, which are given here for 16 molecules.

One test addresses KRAS G12D (Homo sapiens (Human), UniProt P01116, G12D). Briefly: KRAS G12D LoEnz Biochemical Assay, BODIPY-GDP Exchange TR-FRET (SOS1-mediated nucleotide exchange). The settings on record: read-out: KRas (G12D) GDP HTRF IC50.
For a further test, the target named is KRAS WT (Homo sapiens (Human), UniProt P01116). Briefly: KRAS WT Biochemical Assay, BODIPY-GDP Exchange TR-FRET (Example 501; 3 nM KRAS WT, 3 nM SOS1, 60-minute incubation). In outline: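 SOS1-mediated exchange assay: 3 nM biotin-KRAS WT with terbium-streptavidin, started with 3 nM SOS1 and 300 nM BODIPY-GDP, HEPES pH 7.5 with MgCl2. TR-FRET (520/490 nm) read after 60 min; normalized to DMSO and full-inhibition control, IC50 from 4-parameter Hill fit.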
KRAS WT, sequence (P01116-2 other isoform, or with tags, fused parts or gaps): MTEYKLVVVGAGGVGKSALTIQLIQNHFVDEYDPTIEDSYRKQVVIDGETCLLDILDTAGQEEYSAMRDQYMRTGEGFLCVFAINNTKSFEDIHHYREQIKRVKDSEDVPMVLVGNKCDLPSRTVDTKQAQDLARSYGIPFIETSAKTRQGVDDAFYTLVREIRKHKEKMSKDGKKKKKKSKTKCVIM

[1] abbreviates: read-out: KRas(wt) GDP HTRF IC50.

Where two headings read alike, the source gives them in different places.

KRAS G12D, sequence (P01116-2 other isoform, or with tags, fused parts or gaps G12D): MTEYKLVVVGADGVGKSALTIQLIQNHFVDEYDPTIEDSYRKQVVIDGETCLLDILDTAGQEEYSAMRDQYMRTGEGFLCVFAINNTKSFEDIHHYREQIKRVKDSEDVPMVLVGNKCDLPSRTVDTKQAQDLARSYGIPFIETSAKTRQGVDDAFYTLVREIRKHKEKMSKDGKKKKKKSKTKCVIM

Regarding `C#Cc1cccc2cncc(-c3nc4c5c(nc(OC[C@@]67CCCN6CC6(CC6(F)F)C7)nc5c3F)N3C[C@H]5CC[C@H](N5)[C@H]3[C@H](C)O4)c12` (stereo partly drawn) [Compound 40, (5S,5aS,6S,9R)-12-(((7a′S)-2,2-difluorodihydro-1′H,3′H-spiro[cyclopropane-1,2′-pyrrolizin]-7a′(5′H)-yl)methoxy)-2-(5-ethynylisoquinolin-4-yl)-1-fluoro-5-methyl-5a,6,7,8,9,10-hexahydro-5H-4-oxa-3,10a,11,13,14-pentaaza-6,9-methanonaphtho[1,8-ab]heptalene], the IC50 on KRAS G12D came out at 1.3 nM; at KRAS WT (setting [1]), 86.8 nM.

For the molecule `Cc1cc(N)nc(-c2nc3c4c(nc(OC[C@@]56CCCN5CC5(CC5(F)F)C6)nc4c2F)N2C[C@H]4CC[C@H](N4)[C@H]2CO3)c1C(F)(F)F` (stereo partly drawn) [Compound 42, 6-((5aS,6S,9R)-12-(((7a'S)-2,2-difluorodihydro-1′H,3′H-spiro[cyclopropane-1,2′-pyrrolizin]-7a′(5′H)-yl)methoxy)-1-fluoro-5a,6,7,8,9,10-hexahydro-5H-4-oxa-3,10a,11,13,14-pentaaza[6,9]methanonaphtho[1,8-ab]heptalen-2-yl)-4-methyl-5-(trifluoromethyl)pyridin-2-amine], the results for the IC50 at KRAS G12D and on KRAS WT (setting [1]) were 0.47 nM and 45.2 nM, respectively.

Regarding `Cc1cc(N)nc(-c2nc3c4c(nc(OC[C@@]56CCCN5CC5(CC5(F)F)C6)nc4c2F)N2C[C@H]4CC[C@H](N4)[C@H]2[C@H](C)O3)c1C(F)(F)F` (stereo partly drawn) [Compound 47, 6-((5S,5aS,6S,9R)-12-(((7a′S)-2,2-difluorodihydro-1′H,3′H-spiro[cyclopropane-1,2′-pyrrolizin]-7a′(5′H)-yl)methoxy)-1-fluoro-5-methyl-5a,6,7,8,9,10-hexahydro-5H-4-oxa-3,10a,11,13,14-pentaaza[6,9]methanonaphtho[1,8-ab]heptalen-2-yl)-4-methyl-5-(trifluoromethyl)pyridin-2-amine], the IC50 at KRAS G12D was determined as 0.443 nM; at KRAS WT (setting [1]), 4.43 nM.

In the case of `C#Cc1cccc2cc(O)cc(-c3nc4c5c(nc(OC[C@@]67CCCN6C[C@H](F)C7)nc5c3F)N3C[C@H]5CC[C@H](CN5CCCF)[C@H]3CO4)c12` [Compound 50, 5-Ethynyl-4-((5aS,6R,9R)-1-fluoro-14-(3-fluoropropyl)-12-(((2R,7aS)-2-fluorotetrahydro-1H-pyrrolizin-7a(5H)-yl)methoxy)-5a,6,7,8,9,10-hexahydro-5H-4-oxa-3,10a,11,13,14-pentaaza-6,9-ethanonaphtho[1,8-ab]heptalen-2-yl)naphthalen-2-ol], the IC50 at KRAS G12D amounted to 0.24 nM; at KRAS WT (setting [1]) it was 1.69 nM.

For the molecule `C#Cc1cccc2cc(O)cc(-c3nc4c5c(nc(OC[C@@]67CCCN6C[C@H](F)C7)nc5c3F)N3C[C@H]5CC[C@H](CN5CC5COC5)[C@H]3CO4)c12` [Compound 51, 5-ethynyl-4-((5aS,6R,9R)-1-fluoro-12-(((2R,7aS)-2-fluorotetrahydro-1H-pyrrolizin-7a(5H)-yl)methoxy)-14-(oxetan-3-ylmethyl)-5a,6,7,8,9,10-hexahydro-5H-4-oxa-3,10a,11,13,14-pentaaza-6,9-ethanonaphtho[1,8-ab]heptalen-2-yl)naphthalen-2-ol], the IC50 at KRAS G12D is 0.3 nM; on KRAS WT (setting [1]) it was 5.6 nM.

With `Cc1cc(N)nc(-c2nc3c4c(ncnc4c2F)N2C[C@H]4CC[C@H](N4)[C@H]2CO3)c1C(F)(F)F` [Compound 52, 6-((5aS,6S,9R)-1-Fluoro-5a,6,7,8,9,10-hexahydro-5H-4-oxa-3,10a,11,13,14-pentaaza-6,9-methanonaphtho[1,8-ab]heptalen-2-yl)-4-methyl-5-(trifluoromethyl)pyridin-2-amine], the IC50 came out at 2140 nM at KRAS G12D and 194000 nM on KRAS WT (setting [1]).

On to `Fc1c(-c2cccc3cccc(Cl)c23)nc2c3c(ncnc13)N1C[C@H]3CC[C@H](N3)[C@H]1CO2` [Compound 53, (5aS,6S,9R)-2-(8-Chloronaphthalen-1-yl)-1-fluoro-5a,6,7,8,9,10-hexahydro-5H-4-oxa-3,10a,11,13,14-pentaaza-6,9-methanonaphtho[1,8-ab]heptalene], for which the IC50 at KRAS G12D came to 22200 nM; at KRAS WT (setting [1]), 200000 nM.

For the molecule `Cc1cc(N)c(F)c(-c2nc3c4c(nc(OC[C@@]56CCCN5C[C@H](F)C6)nc4c2F)N2C[C@H]4CC[C@H](N4)[C@H]2[C@H](C)O3)c1CC(F)(F)F` [Compound 182, 2-Fluoro-3-((5S,5aS,6S,9R)-1-fluoro-12-(((2R,7aS)-2-fluorotetrahydro-1H-pyrrolizin-7°(5H)-yl)methoxy)-5-methyl-5°,6,7,8,9,10-hexahydro-5H-4-oxa-3,10°,11,13,14-pentaaza-6,9-methanonaphtho[1,8-ab]heptalen-2-yl)-5-methyl-4-(2,2,2-trifluoroethyl)aniline], the half-inhibitory concentration (IC50) on KRAS G12D turned out to be 0.269 nM; at KRAS WT (read-out: KRas HTRF IC50), 33.9 nM.

As to `C[C@@H]1Oc2nc(-c3cc(N)c(F)c(F)c3CC(F)(F)F)c(F)c3nc(OC[C@@]45CCCN4C[C@H](F)C5)nc(c23)N2C[C@H]3CC[C@H](N3)[C@@H]12` [Compound 183, 2,3-Difluoro-5-((5S,5aS,6S,9R)-1-fluoro-12-(((2R,7aS)-2-fluorotetrahydro-1H-pyrrolizin-7a(5H)-yl)methoxy)-5-methyl-5a,6,7,8,9,10-hexahydro-5H-4-oxa-3,10a,11,13,14-pentaaza-6,9-methanonaphtho[1,8-ab]heptalene-2-yl)-4-(2,2,2-trifluoroethyl)aniline], the IC50 at KRAS G12D was found to be 0.21 nM; at KRAS WT (read-out: KRas HTRF IC50), 4.46 nM.

On to `C[C@@H]1Oc2nc(-c3cc(N)c(=O)n(C)c3C(F)(F)F)c(F)c3nc(OC[C@@]45CCCN4C[C@H](F)C5)nc(c23)N2C[C@H]3CC[C@H](N3)[C@@H]12` [Compound 184, 3-Amino-5-((5S,5aS,6S,9R)-1-fluoro-12-(((2R,7aS)-2-fluorotetrahydro-1H-pyrrolizin-7a(5H)-yl)methoxy)-5-methyl-5a,6,7,8,9,10-hexahydro-5H-4-oxa-3,10a,11,13,14-pentaaza-6,9-methanonaphtho[1,8-ab]heptalene-2-yl)-1-methyl-6-(trifluoromethyl)pyridin-2(1H)-one], for which the concentration for half-maximal inhibition (IC50) on KRAS G12D was found to be 1.98 nM; on KRAS WT (read-out: KRas HTRF IC50), 393 nM.

As to `Cc1nc(N)cc(-c2nc3c4c(nc(OC[C@@]56CCCN5C[C@H](F)C6)nc4c2F)N2C[C@H]4CC[C@H](N4)[C@H]2[C@H](C)O3)c1CC(F)(F)F` [Compound 185, 4-((5S,5aS,6S,9R)-1-Fluoro-12-(((2R,7aS)-2-fluorotetrahydro-1H-pyrrolizin-7a(5H)-yl)methoxy)-5-methyl-5a,6,7,8,9,10-hexahydro-5H-4-oxa-3,10a,11,13,14-pentaaza-6,9-methanonaphtho[1,8-ab]heptalene-2-yl)-6-methyl-5-(2,2,2-trifluoromethyl)pyridin-2-amine], the IC50 at KRAS G12D worked out at 1.1 nM; at KRAS WT (read-out: KRas HTRF IC50), 107 nM.

Regarding `C[C@@H]1Oc2nc(-c3cc(N)c(F)c(Cl)c3CC(F)F)c(F)c3nc(OC[C@@]45CCCN4C[C@H](F)C5)nc(c23)N2C[C@H]3CC[C@H](N3)[C@@H]12` [Compound 186, 3-Chloro-4-(2,2-difluoroethyl)-2-fluoro-5-((5S,5aS,6S,9R)-1-fluoro-12-(((2R,7aS)-2-fluorotetrahydro-1H-pyrrolizin-7a(5H)-yl)methoxy)-5-methyl-5a,6,7,8,9,10-hexahydro-5H-4-oxa-3,10a,11,13,14-pentaaza-6,9-methanonaphtho[1,8-ab]heptalene-2-yl)aniline], the IC50 at KRAS G12D came to 0.1 nM; at KRAS WT (read-out: KRas HTRF IC50), 5.61 nM.

In the case of `C[C@@H]1Oc2nc(-c3cc(N)c(F)cc3CC(F)F)c(F)c3nc(OC[C@@]45CCCN4C[C@H](F)C5)nc(c23)N2C[C@H]3CC[C@H](N3)[C@@H]12` [Compound 187, 4-(2,2-Difluoroethyl)-2-fluoro-5-((5S,5aS,6S,9R)-1-fluoro-12-(((2R,7aS)-2-fluorotetrahydro-1H-pyrrolizin-7a(5H)-yl)methoxy)-5-methyl-5a,6,7,8,9,10-hexahydro-5H-4-oxa-3,10a,11,13,14-pentaaza-6,9-methanonaphtho[1,8-ab]heptalene-2-yl)aniline], the results for the IC50 on KRAS G12D and on KRAS WT (read-out: KRas HTRF IC50) were 0.51 nM and 163 nM, respectively.

On to `Cc1nc(N)cc(-c2nc3c4c(nc(OC[C@@]56CCCN5C[C@H](F)C6)nc4c2F)N2C[C@H]4CC[C@H](N4)[C@H]2[C@H](C)O3)c1OC(F)F` [Compound 188, 5-(Difluoromethoxy)-4-((5S,5aS,6S,9R)-1-fluoro-12-(((2R,7aS)-2-fluorotetrahydro-1H-pyrrolizin-7a(5H)-yl)methoxy)-5-methyl-5a,6,7,8,9,10-hexahydro-5H-4-oxa-3,10a,11,13,14-pentaaza-6,9-methanonaphtho[1,8-ab]heptalene-2-yl)-6-methylpyridin-2-amine], for which the IC50 at KRAS G12D turned out to be 1.26 nM; at KRAS WT (read-out: KRas HTRF IC50), 225 nM.

`Cc1nc(N)cc(-c2nc3c4c(nc(OC[C@@]56CCCN5C[C@H](F)C6)nc4c2F)N2C[C@H]4CC[C@H](N4)[C@H]2[C@H](C)O3)c1CC(F)F` [Compound 189, 5-(2,2-Difluoroethyl)-4-((5S,5aS,6S,9R)-1-fluoro-12-(((2R,7aS)-2-fluorotetrahydro-1H-pyrrolizin-7a(5H)-yl)methoxy)-5-methyl-5a,6,7,8,9,10-hexahydro-5H-4-oxa-3,10a,11,13,14-pentaaza-6,9-methanonaphtho[1,8-ab]heptalene-2-yl)-6-methylpyridin-2-amine]: the concentration for half-maximal inhibition (IC50) on KRAS G12D turned out to be 2.31 nM; at KRAS WT (read-out: KRas HTRF IC50) it was 252 nM.

As for `C[C@@H]1Oc2nc(-c3cc(N)c(F)c(F)c3CC(F)F)c(F)c3nc(OC[C@@]45CCCN4C[C@H](F)C5)nc(c23)N2C[C@H]3CC[C@H](N3)[C@@H]12` [Compound 190, 4-(2,2-Difluoroethyl)-2,3-difluoro-5-((5S,5aS,6S,9R)-1-fluoro-12-(((2R,7aS)-2-fluorotetrahydro-1H-pyrrolizin-7a(5H)-yl)methoxy)-5-methyl-5a,6,7,8,9,10-hexahydro-5H-4-oxa-3,10a,11,13,14-pentaaza-6,9-methanonaphtho[1,8-ab]heptalene-2-yl)aniline], the concentration for half-maximal inhibition (IC50) on KRAS G12D turned out to be 0.11 nM; at KRAS WT (read-out: KRas HTRF IC50) it was 10.1 nM.
